For the experiment, the system named is T1, FcFNSII-2.
T1 construct: microsomes of Saccharomyces cerevisiae WAT11 co-expressing Arabidopsis ATR1 P450 reductase
The experiment can be described thus: yeast microsome assay, UPLC-Q-TOF-MS, Michaelis-Menten fit. In kind it is biochemical, Fortunella crassifolia. The settings on record: 1 mM NADPH, 100 mM Tris/HCl pH 7.0, 30°C, 1 h; product apigenin.

For the molecule `O=C1C[C@@H](c2ccc(O)cc2)Oc2cc(O)cc(O)c21` [naringenin], the Km was 3.77 µM.

Values taken from PMC8924551, “Functional Characterization of a Flavone Synthase That Participates in a Kumquat Flavone Metabolon” (Frontiers in Plant Science, 2022).
